Here are results for 12 molecules from patent US8569295B2, “Bicyclic urea compounds” (Merck Patent GmbH, priority 2009, dated 2013).

For this assay, the target named is T1, RON kinase (Homo sapiens, UniProt Q04912).
T1 construct: purchased Caliper Life Sciences
The assay is described as follows: RON kinase biochemical mobility shift assay (Caliper Desktop Profiler). Particulars: RON kinase inhibition. The method, then: The Aurora assays described here are performed on two Caliper Life Sciences systems: the LC3000 and the Desktop Profiler. The RON kinase assays are performed on the Desktop Profiler only. These provide data on enzyme activity via measurement of the relative amounts of phosphorylated or unphosphorylated fluorescently labelled substrate peptide at the end of an enzymatic reaction. These different states of peptide are resolved by applying a potential difference across the sample. The presence of the charged phosphate group on the product (as opposed to the substrate) causes a different peptide mobility between the two peptides. This is visualized by excitation of the fluorescent label on the substrate and product peptides and represented as peaks within the analysis software.
The Desktop Profiler utilizes the same priniciple as the LC3000 for calculating percentage conversion of a substrate to product. Caliper Life Sciences provides proprietary flash frozen pre-made 384 well plates containing selected kinases. Each column in the 384 well plate contains a particular selected kinase. A second plate, the ‘substrate plate’ contains a mix of fluorescently labeled peptide substrate and ATP. These are arranged in columns so that transfer for substrate plate to enzyme plate provides the correct enzyme with the correct substrate/ATP concentration. Compounds are added to a thawed enzyme plate in the desired format, in single concentrations. Reactions are initiated by transfer of the substrate/ATP mix from the substrate plate. The enzyme plate is incubated for 90 minutes at 25 C. The reaction is stopped by addition of 70 ul of Stop Buffer (100 mM HEPES pH 7.5, 0.015% Brij-35, 10 mM EDTA (Sigma, E7889)).
Reading of the plate in the Profiler is identical to the LC3000, and the ratio between substrate and product peaks provides the activity of the enzyme in that well. This is best represented by a plate heat map which colors each well by percent inhibition as compared to positive and negative controls (no inhibitors and no ATP respectively).

Bounds are passed on as bounds.

T1 sequence (Q04912 25-1400): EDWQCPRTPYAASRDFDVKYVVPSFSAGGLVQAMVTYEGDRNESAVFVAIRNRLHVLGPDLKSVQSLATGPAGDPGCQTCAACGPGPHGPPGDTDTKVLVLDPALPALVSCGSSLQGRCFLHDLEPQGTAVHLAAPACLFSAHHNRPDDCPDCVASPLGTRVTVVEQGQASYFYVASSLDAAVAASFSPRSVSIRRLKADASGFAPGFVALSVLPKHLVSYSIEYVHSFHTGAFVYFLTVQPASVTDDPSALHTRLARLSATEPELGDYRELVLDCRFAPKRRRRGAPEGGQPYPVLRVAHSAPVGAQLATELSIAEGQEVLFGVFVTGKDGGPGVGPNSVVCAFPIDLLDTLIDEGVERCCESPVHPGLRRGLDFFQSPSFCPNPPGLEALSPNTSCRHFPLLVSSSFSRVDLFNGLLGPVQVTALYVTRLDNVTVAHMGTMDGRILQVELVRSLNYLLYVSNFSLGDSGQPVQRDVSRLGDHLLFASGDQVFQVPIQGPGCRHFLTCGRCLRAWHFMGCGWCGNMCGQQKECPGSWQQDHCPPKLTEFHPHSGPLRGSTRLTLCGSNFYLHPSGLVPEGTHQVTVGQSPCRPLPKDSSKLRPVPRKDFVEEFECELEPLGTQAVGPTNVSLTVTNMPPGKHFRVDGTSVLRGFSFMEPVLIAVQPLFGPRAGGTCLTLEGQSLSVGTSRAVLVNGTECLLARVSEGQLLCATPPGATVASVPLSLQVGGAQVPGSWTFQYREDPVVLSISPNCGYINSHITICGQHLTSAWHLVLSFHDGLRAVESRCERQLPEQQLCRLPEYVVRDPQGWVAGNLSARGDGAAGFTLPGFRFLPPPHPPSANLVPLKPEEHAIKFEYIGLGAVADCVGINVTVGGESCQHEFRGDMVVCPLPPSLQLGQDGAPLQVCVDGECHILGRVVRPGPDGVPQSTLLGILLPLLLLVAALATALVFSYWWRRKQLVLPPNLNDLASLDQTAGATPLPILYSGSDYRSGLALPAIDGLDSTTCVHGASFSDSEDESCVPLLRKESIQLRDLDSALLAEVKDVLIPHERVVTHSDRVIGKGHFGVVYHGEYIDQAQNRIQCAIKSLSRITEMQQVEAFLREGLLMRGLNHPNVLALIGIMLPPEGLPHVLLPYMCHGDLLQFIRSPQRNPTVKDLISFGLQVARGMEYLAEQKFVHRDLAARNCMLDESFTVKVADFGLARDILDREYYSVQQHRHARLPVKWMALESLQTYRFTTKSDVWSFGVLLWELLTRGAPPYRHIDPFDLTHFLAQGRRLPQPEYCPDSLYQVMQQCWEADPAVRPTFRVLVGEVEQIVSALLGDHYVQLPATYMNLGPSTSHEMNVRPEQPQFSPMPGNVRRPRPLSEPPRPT

With `Cc1c(C(=O)Nc2ccc(Oc3ccnc4c3CNC(=O)N4)c(F)c2)c(=O)n(-c2ccccc2)n1CC(C)(C)O` [Example 74, N-{3-fluoro-4-[(2-oxo-1,2,3,4-tetrahydropyrido[2,3-d]pyrimidin-5-yl)oxy]phenyl}-1-(2-hydroxy-2-methylpropyl)-5-methyl-3-oxo-2-phenyl-2,3-dihydro-1H-pyrazole-4-carboxamide], the 50% inhibitory concentration (IC50) – broadly, the concentration that inhibits the measured activity by half – is 100 to 1000 nM.

`Cc1c(C(=O)Nc2ccc(Oc3ccnc4c3C3OCCCN3C(=O)N4)c(F)c2)c(=O)n(-c2ccccc2)n1CC(C)(C)O` (stereo not drawn) [Example 75, N-{3-fluoro-4-[(6-oxo-3,4,7,11b-tetrahydro-2H,6H-pyrido[2′,3′:4,5]pyrimido[6,1-b][1,3]oxazin-11-yl)oxy]phenyl}-1-(2-hydroxy-2-methylpropyl)-5-methyl-3-oxo-2-phenyl-2,3-dihydro-1H-pyrazole-4-carboxamide]: the 50% inhibitory concentration (IC50) is 100 to 1000 nM.

`O=C(Nc1ccc(Oc2ccnc3c2C2OCCCN2C(=O)N3)c(F)c1)c1cccn(-c2ccc(F)cc2)c1=O` (stereo not drawn) [Example 76, N-{3-fluoro-4-[(6-oxo-3,4,7,11b-tetrahydro-2H,6H-pyrido[2′,3′:4,5]pyrimido[6,1-b][1,3]oxazin-11-yl)oxy]phenyl}-1-(4-fluorophenyl)-2-oxo-1,2-dihydropyridine-3-carboxamide]: the IC50 was in the range of 10 to 100 nM.

Turning to `CCN1Cc2c(Oc3ccc(NC(=O)c4cccn(-c5ccc(F)cc5)c4=O)cc3F)ccnc2NC1=O` [Example 84, N-{4-[(3-ethyl-2-oxo-1,2,3,4-tetrahydropyrido[2,3-d]pyrimidin-5-yl)oxy]-3-fluorophenyl}-1-(4-fluorophenyl)-2-oxo-1,2-dihydropyridine-3-carboxamide], the IC50 was under 10 nM.

As to `O=C(Nc1ccc(Oc2ccnc3c2CN(CC(F)(F)F)C(=O)N3)c(F)c1)c1cccn(-c2ccc(F)cc2)c1=O` [Example 85, N-(3-fluoro-4-{[2-oxo-3-(2,2,2-trifluoroethyl)-1,2,3,4-tetrahydropyrido[2,3-d]pyrimidin-5-yl]oxy}phenyl)-1-(4-fluorophenyl)-2-oxo-1,2-dihydropyridine-3-carboxamide], the IC50 was in the range of 10 to 100 nM.

Turning to `O=C1NCc2c(Oc3ccc(NC(=O)c4cccc(C(F)(F)F)c4F)cc3F)ccnc2N1` [Example 94, 2-fluoro-N-{3-fluoro-4-[(2-oxo-1,2,3,4-tetrahydropyrido[2,3-d]pyrimidin-5-yl)oxy]phenyl}-3-(trifluoromethyl)benzamide], the IC50 is 10 to 100 nM.

As to `N#Cc1cccc(C(=O)Nc2ccc(Oc3ccnc4c3CNC(=O)N4)c(F)c2)c1` [Example 95, 3-cyano-N-{3-fluoro-4-[(2-oxo-1,2,3,4-tetrahydropyrido[2,3-d]pyrimidin-5-yl)oxy]phenyl}benzamide], the IC50 is 10 to 100 nM.

For the molecule `COc1cccc(C(=O)Nc2ccc(Oc3ccnc4c3CNC(=O)N4)c(F)c2)c1` [Example 96, N-{3-fluoro-4-[(2-oxo-1,2,3,4-tetrahydropyrido[2,3-d]pyrimidin-5-yl)oxy]phenyl}-3-methoxybenzamide], the IC50 is 10 to 100 nM.

In the case of `Cc1cccc(C(=O)Nc2ccc(Oc3ccnc4c3CNC(=O)N4)c(F)c2)c1` [Example 97, N-{3-fluoro-4-[(2-oxo-1,2,3,4-tetrahydropyrido[2,3-d]pyrimidin-5-yl)oxy]phenyl}-3-methylbenzamide], the IC50 was 10 to 100 nM.

Turning to `O=C1NCc2c(Oc3ccc(NC(=O)c4cccc(F)c4)cc3F)ccnc2N1` [Example 98, 3-fluoro-N-{3-fluoro-4-[(2-oxo-1,2,3,4-tetrahydropyrido[2,3-d]pyrimidin-5-yl)oxy]phenyl}benzamide], the half-maximal inhibitory concentration (IC50) was in the range of 10 to 100 nM.

With `O=C1NCc2c(Oc3ccc(NC(=O)c4ccc(Br)cc4)cc3F)ccnc2N1` [Example 99, 4-bromo-N-{3-fluoro-4-[(2-oxo-1,2,3,4-tetrahydropyrido[2,3-d]pyrimidin-5-yl)oxy]phenyl}benzamide], the IC50 was under 10 nM.

For the molecule `Cc1ccc(Nc2ccnc3c2CNC(=O)N3)cc1Br` [Example 194, 5-(3-Bromo-4-methyl-phenylamino)-3,4-dihydro-1H-pyrido[2,3-d]pyrimidin-2-one], the IC50 was in the range of 100 to 1000 nM.
